Article PMC2911597, “Three-Dimensional Structure of TspO by Electron Cryomicroscopy of Helical Crystals” (Structure(London, England:1993), 2010)
Read-outs that look alike come from different tables or passages of the source. Blank lines part the entries; values can stand above or below the molecule they belong to.

How the values were obtained:
[1] = biological target: T1, TspO (tryptophan-rich sensory protein) (Cereibacter sphaeroides, UniProt Q9RFC8); test: intrinsic tryptophan fluorescence quenching titration, purified protein in DDM; format: binding
T1 construct: C-terminal His6 tag, expressed in E. coli BL21(DE3), purified in DDM
T1 sequence (Q9RFC8 1-158): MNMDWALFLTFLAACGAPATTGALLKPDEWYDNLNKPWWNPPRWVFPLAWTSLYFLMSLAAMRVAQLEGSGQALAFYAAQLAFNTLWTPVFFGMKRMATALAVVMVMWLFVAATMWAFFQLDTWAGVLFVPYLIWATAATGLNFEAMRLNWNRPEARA

native gel or EMSA = biological target: the molecule itself; test: native gel or EMSA

Molecule: C=CC1=C(C)c2cc3[nH]c(cc4nc(cc5[nH]c(cc1n2)c(C)c5CCC(=O)O)C(CCC(=O)O)=C4C)c(C)c3C=C [PPIX, protoporphyrin IX]
- Kd [1]: 8.6 ± 0.6 µM

- Kd ([1]; read-out: Kd): 17.9 ± 1.7 µM
Molecule: CC1=C(CCC(=O)O)c2cc3[nH]c(cc4nc(cc5[nH]c(cc1n2)c(CCC(=O)O)c5C)C(C)=C4CCC(=O)O)c(CCC(=O)O)c3C [cPPIII, coproporphyrin III]

Molecule: C=CC1=C(C)C2=Cc3c(C=C)c(C)c4[n]3[Fe]([Cl])[n]3c(c(C)c(CCC(=O)O)c3=CC3=NC(=C4)C(C)=C3CCC(=O)O)=CC1=N2 [hemin]
- Kd [1]: 10 ± 2.5 µM

B1: tryptophan-rich sensory protein (TspO) from Rhodobacter sphaeroides (natural protein, UniProt Q9RFC8 1-158, looked up)
chain: T1 sequence (Q9RFC8 1-158)
notes: also called rsTspO; TspO-His6; source: E. coli BL21(DE3), pET29, purified in DDM (NiNTA-agarose, gel filtration)
- stoichiometry N (native gel or EMSA): 2
